{"source": "patent US8945929B2", "about": "“Marker for determination of sensitivity to anti-cancer agent” (Keio University, priority 2008, dated 2015)", "key": {"[1]": {"system": "cultured human colorectal cancer cells, HCT-116", "test": "Tumor size in nude mice with subcutaneously transplanted HCT-116 cells", "type": "in vivo, nude mice (BALB/cAJcl-nu/nu)", "conditions": "7 days after the administration", "procedure": "(§1) Six-week-old, male nude mice (BALB/cAJcl-nu/nu) purchased from CLEA Japan, Inc. were used and allowed to ingest a general feed and drink water freely in a thermostatic chamber. A protocol following the animal experiment guideline in School of Medicine, Keio University was applied and then approved. Then, this examination was carried out humanely.\n(§2) CAMPTO™ as a preparation of CPT-11 and a solvent for dissolving Campto (hereinafter, referred to as “solvent”) were obtained from Yakult Honsha, Co., Ltd.\n(§3) After the transplantation, a tumor size was measured by using the following formula: (longer tumor diameter)×(shorter tumor diameter)^2/2. When the tumor size reached 300 to 400 mm^3, the mice were randomly assigned to a CPT-11 administration group and a solvent administration group (a CPT-11 non-administration group). The day when the mice were assigned to two groups was defined as day 0. CAMPTO™ as a preparation of CPT-11 in an amount of 4.5 mL/kg (90 mg/kg as CPT-11 amount) and the solvent for dissolving CAMPTO™ (D-sorbitol, lactic acid, pH adjuster) were administered slowly to the CPT-11 administration group and a CPT-11 non-administration group, respectively, from the tail vein. The tumor size was measured on day 0, and 12 hours, 24 hours, 72 hours, and 7 days after the administration. The blood was collected after the dissection. After the centrifugation of the collected blood at 10,000 rpm for 10 minutes, a serum fraction was frozen with liquid nitrogen and stored at −80° C. until the serum fraction was used in preparation of a sample for metabolome analysis. As a control group, a cancer cell-non-transplanted group was produced and the same treatment was carried out.\n(§4) After the transplantation, a tumor size was measured by using the following formula: (longer tumor diameter)×(shorter tumor diameter)^2/2. When the tumor size reached 300 to 400 mm^3, the mice were randomly assigned to a CPT-11 administration group and a solvent administration group. The tumor size was measured on day 0, and 12 hours, 24 hours, 72 hours, and 7 days after the administration. […]"}, "[2]": {"system": "cultured human colorectal cancer cells, HT-29", "test": "Tumor size in nude mice with subcutaneously transplanted HT-29 cells", "type": "in vivo, nude mice (BALB/cAJcl-nu/nu)", "conditions": "conclusion from tumor size, 7 days after the administration", "procedure": "as §1, §2\nas §4, with “group (a CPT-11 non-administration group). The day when the mice were assigned to two groups was defined as day 0. […]” for “group.”\nAfter the transplantation, a tumor size was measured by using the following formula: (longer tumor diameter)×(shorter tumor diameter)^2/2. […] The tumor size was measured on day 0, and 12 hours, 24 hours, 72 hours, and 7 days after the administration. […]"}, "[3]": {"system": "cultured human colorectal cancer cells, HCT-116", "test": "Serum metabolome (CE-TOFMS) of HCT-116 cancer-bearing mice after CPT-11", "type": "in vivo, nude mice (BALB/cAJcl-nu/nu)", "conditions": "HCT-116 transplanted, 90 mg/kg as CPT-11", "procedure": "as §3, with “After the centrifugation of the collected blood at 10,000 rpm for 10 minutes, a serum fraction was frozen with liquid nitrogen and stored at −80° C. until the serum fraction was used in preparation of a sample for metabolome analysis. As a control group, a cancer cell-non-transplanted group was produced and the same treatment was carried out.” left out\n(§5) The comprehensive measurement of the metabolites in a serum was carried out by using a capillary electrophoresis time-of-flight mass spectrometry (CE-TOFMS) system manufactured by Agilent Technologies, Inc. In this examination, a voltage was applied such that an output of the capillary was a cathode, and cationic metabolites were comprehensively measured. […]"}, "[4]": {"system": "cultured human colorectal cancer cells, HT-29", "test": "Serum metabolome (CE-TOFMS) of HT-29 cancer-bearing mice after CPT-11", "type": "in vivo, nude mice (BALB/cAJcl-nu/nu)", "conditions": "HT-29 transplanted, 90 mg/kg as CPT-11", "procedure": "as §3, with “After the centrifugation of the collected blood at 10,000 rpm for 10 minutes, a serum fraction was frozen with liquid nitrogen and stored at −80° C. until the serum fraction was used in preparation of a sample for metabolome analysis. As a control group, a cancer cell-non-transplanted group was produced and the same treatment was carried out.” left out\nas §5"}, "[5]": {"system": "cultured human colorectal cancer cells, HCT-116", "conditions": "HCT-116, as obtained from Yakult Honsha; cited from earlier work"}, "[6]": {"system": "cultured human colorectal cancer cells, HT-29", "conditions": "HT-29, as obtained from Yakult Honsha; cited from earlier work"}, "[7]": {"conditions": "background statement; cited from earlier work"}, "[8]": {"conditions": "12 hours after the administration"}, "[9]": {"conditions": "24 hours after the administration"}}, "note": "Structures can show the parent of a compound that is named as a salt."}
{"smiles": "CCc1c2c(nc3ccc(OC(=O)N4CCC(N5CCCCC5)CC4)cc13)-c1cc3c(c(=O)n1C2)COC(=O)[C@]3(O)CC", "note": "[CPT-11, Irinotecan hydrochloride]", "values": [{"measurement": "tumor size, CPT-11 group with HCT-116 vs CPT-11 group with HT-29", "setting": "[1]; 90 mg/kg as CPT-11, tail vein", "result": "significant difference (p=0.04979)"}, {"measurement": "tumor size, CPT-11 administration group vs solvent administration group", "setting": "[1]; HCT-116 transplanted, 90 mg/kg as CPT-11, tail vein", "result": "significant difference (p=0.01319)"}, {"measurement": "sensitivity of HCT-116 to CPT-11 compared to HT-29", "setting": "[1]; conclusion from tumor size", "result": "high sensitivity"}, {"measurement": "sensitivity of HT-29 to CPT-11 compared to HCT-116", "setting": "[2]", "result": "low sensitivity"}, {"measurement": "serum expression level of peak at m/z 104.070 (N,N-dimethyl glycine), CPT-11 administration group", "setting": "[3]; [8]", "result": "decreased to the same level as in the control group"}, {"measurement": "serum expression level of peak at m/z 166.086 (L-phenylalanine), CPT-11 administration group", "setting": "[3]; [9]", "result": "decreased to the same level as in the control group"}, {"measurement": "serum expression level of peak at m/z 104.070 (N,N-dimethyl glycine), CPT-11 group vs solvent group", "setting": "[4]; [8]", "result": "the same level"}, {"measurement": "serum expression level of peak at m/z 166.086 (L-phenylalanine), CPT-11 group vs solvent group", "setting": "[4]; [9]", "result": "the same level"}]}
{"smiles": "CCc1c2c(nc3ccc(O)cc13)-c1cc3c(c(=O)n1C2)COC(=O)[C@]3(O)CC", "note": "[SN-38, 7-ethyl-10-hydroxycamptothecin]", "values": [{"measurement": "sensitivity of cells to SN-38", "setting": "[5]", "result": "high sensitivity"}, {"measurement": "sensitivity of cells to SN-38", "setting": "[6]", "result": "low sensitivity"}]}
{"smiles": "CCc1c2c(nc3ccc(O[C@@H]4O[C@H](C(=O)O)[C@@H](O)[C@H](O)[C@H]4O)cc13)-c1cc3c(c(=O)n1C2)COC(=O)[C@]3(O)CC", "note": "[SN-38G]", "values": [{"measurement": "cytotoxicity", "setting": "[7]", "result": "no cytotoxicity"}]}
